From US10092526B2, “Compositions and methods for treating respiratory injury or disease” (University of Pittsburgh—Of the Commonwealth System of …, priority 2013, dated 2018)
Values after ≈ are worked out from the molar mass of the structure shown.

Experiments:
Format in all cases: cell-based
[1] = system: TNFα cytokine release; assay: LPS-induced TNFα cytokine release in PBMC (ELISA); conditions: LPS 50 ng/ml, 16 hours, TNFα release by ELISA
Protocol: Peripheral blood mononuclear cells (PBMC) (0.2 ml at 0.3×10^6/ml) were treated with lipopolysaccharide (LPS) (50 ng/ml) for 16 hours concurrently with each compound tested at different concentrations. TNFα cytokine release was monitored by ELISA. These concentrations were used to calculate the IC50.

[2] = U937 monocyte cytotoxicity, Trypan blue staining; conditions: human; U937 monocytes, 16 hours, Trypan blue dead cells; read-out: LC50
Protocol: (§1) U937 monocytes (0.2 ml at 0.3 x 10^6/ml) were treated with each compound at different concentrations for 16 hours. The cells were then stained with Trypan blue to identify dead cells, and to calculate the LC50. Combined values were used to generate therapeutic indexes (TI)=LC50/IC50.

[3] = system: U937 monocytes; assay: U937 monocyte cytotoxicity, Trypan blue staining; conditions: therapeutic index (TI)=LC50/IC50
Protocol: as §1

[4] = system: IL1β; assay: IC50IL1β measurements (FIG. 1)

Compound	IC50 [1] [µg/mL]	CC50 at 16 h [2] [µg/mL]	TI [3]	IC50 [4] [µg/mL]
Fc1cc(CNCCCCNCc2ccc(N3CCCC3)c(F)c2)ccc1N1CCCC1 [Compound 018]	0.1 (≈ 0.226 µM)	0.4 (≈ 0.904 µM)	4	–
c1coc(-c2ccc(CNCCNCc3ccc(-c4ccco4)cc3)cc2)c1 [Compound 013]	1.9 (≈ 5.1 µM)	5.5 (≈ 14.8 µM)	2.8	–
c1cc(N2CCCC2)ccc1CNCCCCCNCc1ccc(N2CCCC2)cc1 [Compound 017]	0.2 (≈ 0.475 µM)	4 (≈ 9.51 µM)	20	–
c1ccc(-c2ccc(CNCCCCNCc3ccc(-c4ccccn4)cc3)cc2)nc1 [Compound 010]	1.5 (≈ 3.55 µM)	22 (≈ 52.1 µM)	14.7	1.5 (≈ 3.55 µM)
Cc1cc(N2CCCC2)ccc1CNCCCCNCc1ccc(N2CCCC2)cc1C [Compound 020]	0.2 (≈ 0.46 µM)	2 (≈ 4.6 µM)	10	–
c1ccc(CNCCNCc2ccc(-c3ccccn3)cc2)nc1 [Compound 008]	1.5 (≈ 4.71 µM)	45 (≈ 141 µM)	30	–
c1cnc(-c2ccc(CNCCCCNCc3ccc(-c4ncccn4)cc3)cc2)nc1 [Compound 016]	4 (≈ 9.42 µM)	> 100	>25	–
c1cc(N2CCCC2)ccc1CNCCNCc1ccc(N2CCCC2)cc1 [Compound 002]	0.6 (≈ 1.58 µM)	7 (≈ 18.5 µM)	11	–
Cc1cc(CNCCCCNCc2ccc(N3CCCC3)c(C)c2)ccc1N1CCCC1 [Compound 019]	0.5 (≈ 1.15 µM)	1 (≈ 2.3 µM)	2	–
c1cc(N2CCOCC2)ccc1CNCCNCc1ccc(N2CCOCC2)cc1 [Compound 001]	20 (≈ 48.7 µM)	260 (≈ 633 µM)	13	–
